Source: patent publication US9139502B2, “Use of an urushiol compound in preparation of pharmaceutical compositions for inhibiting Smad3 phosphorylation” (Southern Hospital, Southern Medical University, priority 2013, dated 2015)

Legend:
[1] = biological target: interaction of Smad3 with TβRI (Rattus norvegicus, UniProt P84025); experiment: Immunoprecipitation of Smad3 with TβRI in vitro; type: cell-based; settings: NRK52E cells, GQ-5 2.5 nM pre-treated 1 h, TGF-β1 10 ng/ml 1 h
Method: (§1) NRK52E cells were cultured in DMEM-Ham's medium supplemented with 10% fetal bovine serum. The cells reached at approximately 50% confluence were used for in vitro experiments. Cells were serum-starved for 12 h, and randomized into 4 groups: (1) Controls; (2) GQ-5 only; (3) TGF-β1 only; (4) TGF-β1+GQ-5
(2) GQ-5 only: pre-treated with GQ-5 (2.5 nM) for 1 h, followed with DMEM for 1 h
(3) TGF-β1 only: pre-treated with DMSO for 1 h, followed with TGF-β1 (10 ng/ml) for 1 h
(§2) (4) TGF-β1+GQ-5: pre-treated with GQ-5 (2.5 nM) for 1 h, followed with TGF-β1 (10 ng/ml) for 1 h
GQ-5 was dissolved in DMSO. Cells were treated as described. Cell lysates were collected for immunoprecipitation to examine the interaction among TGFβ type I receptor (TβRI), TβRII, Smad3 and Smad2.

ERK = experiment: Western blot of TGF-β1-induced ERK phosphorylation in vitro; type: cell-based, rat; settings: NRK52E and NRK49F cells, GQ-5 2.5 nM pre-treated 1 h, TGF-β1 10 ng/ml 1 h
Method: as §1, with “NRK52E and NRK49F” for “NRK52E”, “medium (Gibco, Life Techologies, NY, USA)” for “medium”, “serum (Gibco, Life Techologies, NY, USA).” for “serum.”
(§3) (2) GQ-5 only: pre-treated with GQ-5 (2.5 μM) for 1 h, followed with DMEM for 1 h
(§4) (3) TGF-β1 only: pre-treated with DMSO (0.1%) for 1 h, followed with TGF-β1 (10 ng/ml) for 1 h
as §2
GQ-5 was dissolved in DMSO. Cells were treated as described. cell lysates were immunoblotted with antibodies against Smad4, Smad7, phospho-p38, p38, phospho-PI3K, PI3K, phosphor-ERK, and ERK.

NRK52E cells = experiment: MTT cell viability test; type: cell-based, rat; settings: GQ-5 0.25-4 μM, 1 h
Method: To test the toxicity of GQ-5, rat proximal tubular cells (NRK52E) were seeded into 96-well plates in a volume of 200 μl per well (1×10^5 cell/ml) and incubated for 24 hours to allow cells to attach. The cells were then incubated with indicated amount of GQ-5 for 1 h. Cell viability was determined by addition of 20 μl of 3-(4,5-dimethylthiazol-2-yl)-2, 5-diphenyltetrazolium bromide (MTT) at a concentration of 5 mg/ml. After incubation for 4 hours, the medium was removed and 150 μl of DMSO was added to dissolve the formazan crystals. The absorbance was read at 540 nm by using iMark™Microplate Reader (Bio-Rad).

Smad3 phosphorylation = experiment: Western blot of TGF-β1-induced Smad3 phosphorylation in vitro; type: cell-based, rat
Method: as §1, with “NRK52E and NRK49F” for “NRK52E”, “into 6” for “into 4”, “TGF-β1+GQ-5 0.1 μM; (5) TGF-β1+GQ-5 0.5 μM; (6) TGF-β1+GQ-5 2.5 μM.” for “TGF-β1+GQ-5”
as §3, §4
(4) TGF-β1+GQ-5 0.1 μM: pre-treated with GQ-5 (0.1 μM) for 1 h, followed with TGF-β1 (10 ng/ml) for 1 h
(5) TGF-β1+GQ-5 0.5 μM: pre-treated with GQ-5 (0.5 μM) for 1 h, followed with TGF-β1 (10 ng/ml) for 1 h
(6) TGF-β1+GQ-5 2.5 μM: pre-treated with GQ-5 (2.5 μM) for 1 h, followed with TGF-β1 (10 ng/ml) for 1 h.
GQ-5 was dissolved in DMSO. Cells were treated as described. Cell lysates were immunoblotted with antibodies against phospho-Smad3, Smad3, phospho-Smad2, Smad2.
as §1, with “into 8” for “into 4”, “TGF-β1 0.5 h;” for “TGF-β1 only;”, “(4) TGF-β1 0.5 h+GQ-5; (5) TGF-β1 1.0 h; (6) TGF-β1 1.0 h+GQ-5; (7) TGF-β1 3.0 h; (8) TGF-β1 3.0 h+GQ-5;” for “(4) TGF-β1+GQ-5”
(4) TGF-β1 0.5 h+GQ-5: pre-treated with GQ-5 (2.5 μM) for 1 h, followed with TGF-β1 (10 ng/ml) for 0.5 h
(6) TGF-β1 1.0 h+GQ-5: pre-treated with GQ-5 (2.5 μM) for 1 h, followed with TGF-β1 (10 ng/ml) for 1.0 h
(8) TGF-β1 3.0 h+GQ-5: pre-treated with GQ-5 (2.5 μM) for 1 h, followed with TGF-β1 (10 ng/ml) for 3.0 h
GQ-5 was dissolved in DMSO. Cells were treated as described. Cell lysates were immunoblotted with antibodies against phospho-Smad3, Smad3, phospho-Smad2, and Smad2.

fibronectin = experiment: Western blot of TGF-β1-induced fibronectin protein in vitro; type: cell-based, rat; settings: NRK 52E and NRK 49F cells, GQ-5 0.1-2.5 μM pre-treated 1 h, TGF-β1 10 ng/ml 48 h
Method: as §1, with “NRK52E and NRK49F” for “NRK52E”, “into 6” for “into 4”, “TGF-β1+GQ-5 0.1 μM; (5) TGF-β1+GQ-5 0.5 μM; (6) TGF-β1+GQ-5 2.5 μM” for “TGF-β1+GQ-5”
(2) GQ-5 only: pre-treated with GQ-5 (2.5 μM) for 1 h, followed with DMEM for 48 h
(3) TGF-β1 only: pre-treated with DMSO for 1 h, followed with TGF-β1 (10 ng/ml) for 48 h
(4) TGF-β1+GQ-5 0.1 μM: pre-treated with GQ-5 (0.1 μM) for 1 h, followed with TGF-β1 (10 ng/ml) for 48 h
(5) TGF-β1+GQ-5 0.5 μM: pre-treated with GQ-5 (0.5 μM) for 1 h, followed with TGF-β1 (10 ng/ml) for 48 h
(6) TGF-β1+GQ-5 2.5 μM: pre-treated with GQ-5 (2.5 μM) for 1 h, followed with TGF-β1 (10 ng/ml) for 48 h
GQ-5 was dissolved in DMSO. Cells were treated as described. Cells lysates were immunebloted with antibodies against α-SMA, collagen I and fibronectin.

Sequence of interaction of Smad3 with TβRI (P84025 whole entry): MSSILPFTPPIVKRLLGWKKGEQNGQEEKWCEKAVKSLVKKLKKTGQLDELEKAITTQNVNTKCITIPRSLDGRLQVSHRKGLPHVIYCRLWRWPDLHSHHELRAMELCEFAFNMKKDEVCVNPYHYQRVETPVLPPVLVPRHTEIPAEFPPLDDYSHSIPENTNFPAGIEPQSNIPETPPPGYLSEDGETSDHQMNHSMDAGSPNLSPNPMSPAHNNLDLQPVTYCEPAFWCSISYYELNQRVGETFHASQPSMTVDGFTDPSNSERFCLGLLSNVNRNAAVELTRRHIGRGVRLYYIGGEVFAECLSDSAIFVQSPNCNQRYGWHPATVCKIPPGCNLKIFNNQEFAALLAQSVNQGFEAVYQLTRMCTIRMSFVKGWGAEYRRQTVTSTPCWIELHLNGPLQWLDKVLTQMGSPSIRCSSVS

CCCCCC/C=C\CCCCCCCc1cccc(O)c1O [GQ-5, 3-[(Z)-pentadec-8-enyl]catechol]
interaction of Smad3 with TβRI [1]: significantly blocked | TGF-β1-induced phosphorylation of ERK (ERK): did not affect | viability and proliferation of the cells (MTT) (NRK52E cells): did not affect | inhibitory effect in the absence of TGF-β1 stimulation (Smad3 phosphorylation; NRK52E and NRK49F cells, GQ-5 2.5 μM only): almost undetectable | TGF-β1-induced Smad3 phosphorylation, dose dependence (Smad3 phosphorylation; NRK52E and NRK49F cells, GQ-5 0.1, 0.5, 2.5 μM pre-treated 1 h, TGF-β1 10 ng/ml 1 h): attenuated TGF-β1-induced Smad3 phosphorylation in a dose-dependent manner | TGF-β1-induced Smad3 phosphorylation, time dependence (Smad3 phosphorylation; NRK52E cells, GQ-5 2.5 μM pre-treated 1 h, TGF-β1 10 ng/ml 0.5, 1.0, 3.0 h): attenuated TGF-β1-induced Smad3 phosphorylation in a time-dependent manner | TGF-β1-induced protein expression of fibronectin (fibronectin): significantly inhibited
